Assays:
[1] = tested on: MT formation at Golgi fragments in HCMV-infected NHDFs; experiment: Nocodazole washout assay, MT nucleation; type: cell-based, human; details: 10µM nocodazole for 8h, mock or AD169-infected NHDFs, 3d
[2] = tested on: CDK activity and EB3 abundance in HCMV AD169-infected NHDFs; details: 3 µM

Structure (SMILES)	effect on MTs, Golgi and AC structures [1]	effect on IE2 expression ([2]; AD169 MOI 3, WB)	CDK substrate phosphorylation and increases in EB3 abundance by 3d.p.i. ([2]; daily inhibitor replenishment, AD169 MOI 3, 3d.p.i.)	effect on HCMV-induced CDK activation (pan-CDK1 substrate antibody) ([2]; replaced every 24h, AD169 MOI 3, WB)	effect on HCMV-induced increases in EB3 ([2]; replaced every 24h, AD169 MOI 3, WB, 1 and 2 d.p.i.)
COC(=O)Nc1nc2ccc(C(=O)c3cccs3)cc2[nH]1 [nocodazole]	depolymerized MTs and dispersed Golgi and AC structures	–	–	–	–
Nc1nc(Nc2ccc(S(N)(=O)=O)cc2)nn1C(=O)c1c(F)cccc1F [JNJ-7706621]	–	modestly affected IE2 expression	insensitive	suppressed HCMV-induced CDK activation	prevented increases in EB3 at 1 and 2 d.p.i.

Source: publication PMC5896778 (Developmental cell, 2018)
